How the values were obtained:
WT mice = assay: Experimental asthma model (repeated HDM exposure), response to dexamethasone in wild-type mice; type: in vivo, mouse (BALB/c); conditions: dexamethasone 3 mg/kg i.p. last 5 days, mean ± SEM vs HDM-treated group
Method: (§1) The VNN1^−/− mice used in this study were described in Pitari et al., FEBS letters 2000; 483:149-54. Age- and sex-matched wild-type BALB/c mice were purchased from Harlan Laboratories (Indianapolis, Ind.). All mice were housed in a specific pathogen-free environment following routine practice.
(§2) Mice were exposed to intranasal doses of HDM (20 ug in 50 ul saline) or saline (0.9% NaCl, 50 ul; control group) 3 times a week for 3 weeks as previously described 18. Mice were treated with intra-peritoneal dexamethasone (3 mg/kg in dimethyl sulfoxide, (DMSO)) or DMSO (100 ul) for the last 5 days of the 3 week model. Airway hyperresponsiveness (AHR) was assessed 24 hours after the last HDM challenge using a flexiVent system (SCIREQ, Montreal, QC, Canada) as previously described. See, e.g., Brandt et al., J Allergy Clin Immunol., 2013; 132:1194-204 e2. Bronchoalveolar lavage fluid (BALF) was collected, processed, and inflammatory cells were quantified analyzed as previously described. See Brandt et al., 2013.
(§3) For the experimental asthma model results, individual AHR, total BALF cell counts and eosinophil percentage in mice treated with HDM plus dexamethasone were compared to and normalized by the corresponding mean value in the HDM-treated group. The data are presented as means±SEM. Difference between the WT and VNN1^−/− group was tested by non-parametric Mann Whitney test. A p-value<0.05 was considered significant. Percentage reduction was used to present the steroid response results.

VNN1−/− mice = assay: Experimental asthma model (repeated HDM exposure), response to dexamethasone in VNN1−/− mice; type: in vivo, mouse; conditions: dexamethasone 3 mg/kg i.p. last 5 days, mean ± SEM vs HDM-treated group
Method: as §1, §2, §3

C[C@@H]1C[C@H]2[C@@H]3CCC4=CC(=O)C=C[C@]4(C)[C@@]3(F)[C@@H](O)C[C@]2(C)[C@@]1(O)C(=O)CO [Dexamethasone, dexamethasone]
average percentage reduction of AHR (WT mice; 50 mg/ml methacholine challenge): 78.1% | average percentage reduction of AHR (WT mice; 100 mg/ml methacholine challenge): 80.2% | reduction in eosinophils (BALF) (WT mice): 83.6±3.7% | reduction in total BALF cells (WT mice): 70.0±4.3% | average percentage reduction of AHR (VNN1−/− mice; 50 mg/ml methacholine): 55.2±4.9% | average percentage reduction of AHR (VNN1−/− mice; 100 mg/ml methacholine): 53.3% | reduction in eosinophils (BALF) (VNN1−/− mice): 36.1% | reduction in total BALF cells (VNN1−/− mice): 40.9%

Source: US20210002723A1, “METHODS FOR ASSESSING RESPONSIVENESS TO ASTHMA TREATMENT BASED ON VNN-1 EXPRESSION AND PROMOTER METHYLATION” (Children's Hospital Medical Center, priority 2014, published 2021)
